Test results from US7544703B2, “Cyclic compound having 4-pyridylalkylthio group having substituted or unsubstituted amino group introduced therein” (Santen Pharmaceutical Co., Ltd., priority 2004, dated 2009).
Where a name gives a salt, the structure may show the parent alone.

Assays:
[1] = tested on: HUVEC (normal human umbilical vein endothelial cells); assay: VEGF-induced HUVEC proliferation: cell proliferation inhibitory action test; format: cell-based; conditions: 72 h, 5 μL of 20 μg/mL test compound solution per well, WST-8 absorbance at 450 nm three days after VEGF addition, read-out: Cell proliferation inhibition rate (%);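 further: each well holds 100 µL cell suspension before compound addition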
Method: A cell proliferation inhibitory action test of the compounds of the present invention was performed using a VEGF-induced HUVEC proliferation evaluation system (HUVEC stands for normal human umbilical vein endothelial cells), which is one of the widely-used methods of evaluating in vitro angiogenesis inhibitory effects of drugs. As one of the widely-used methods of evaluating angiogenesis inhibitory effects of drugs, a cell proliferation inhibitory action test using a VEGF-induced HUVEC proliferation reaction evaluation system has been reported in Cancer Res., 59, 99-106 (1999). According to the method described in the above-mentioned document, a cell proliferation inhibitory action test of the compounds of the present invention was performed, the cell proliferation inhibition rate was calculated, and the angiogenesis inhibitory effect of each of the compounds of the present invention was evaluated using the obtained rate as an index. Each test compound was dissolved in dimethyl sulfoxide (hereinafter abbreviated as DMSO), and the obtained solution was diluted with a commercially available phosphoric acid buffer solution (hereinafter abbreviated as PBS), whereby a 20 μg/mL test compound solution was prepared. HUVEC was suspended in a 0.5% fetal bovine serum (hereinafter abbreviated as FBS)-containing F12K medium, whereby a 2×10^4 cells/mL HUVEC suspension was prepared. VEGF was dissolved in 0.1% bovine serum albumin-containing PBS, and the obtained solution was diluted with the 0.5% FBS-containing F12K medium, whereby a 400 ng/mL VEGF solution was prepared. • 1) The HUVEC suspension was inoculated in an amount of 100 μL into each well of a 96-well plate coated with type I collagen (2×10^3 cells per well). • 2) One day after the inoculation, the test compound solution was added in an amount of 5 μL per well. • 3) One hour after the addition of the test compound solution, the VEGF solution was added in an amount of 5 μL per well. • 4) Three days after the addition of the VEGF solution, WST-8 assay kit (Dojin Chemical Co., Ltd.) was added in an amount of 10 μL per well. • 5) After 3 hours, the above-mentioned plate was attached to an absorptiometer (Multilabel Counter ARVO), and an absorbance at 450 nm of each well suspension (hereinafter referred to as test compound suspension) was measured. • 6) A test was carried out in the same manner as in the above 1) to 5) except that 1.0% DMSO was used instead of the test compound solution. The result was used as a control. Incubation was carried out under conditions of 37° C., 5% carbon dioxide and […] in an incubator throughout the above-mentioned test steps. The cell proliferation inhibition rate (%), which was used as an index of an angiogenesis inhibitory effect, was calculated according to the following calculation equation. Cell proliferation inhibition rate (%)=100−{(Absorbance of test compound suspension−A)/(absorbance of control−A)}×100 (Calculation Equation) A: Absorbance of only cell suspension (cell+medium) (Test Results and Discussion)

B16 cells = assay: Tumor growth inhibitory action test using cancer models in mice (B16 cells); format: in vivo; conditions: C57BL/6N mouse, B16 cells intradermal; 100 mg/kg/day oral once a day, day 0 to day 10; average of 9 mice per group; read-out: Tumor tissue weight inhibition rate (%)
Method: A tumor growth inhibitory action test of the compounds of the present invention was performed using a tumor growth model in mice, which is one of the widely-used methods of evaluating in vivo anticancer effects of drugs.
As one of the widely-used methods of evaluating anticancer effects of drugs, a tumor growth inhibitory action test using cancer models in mice has been reported in Cancer Res., 59, 5209-5218 (1999). According to the method described in the above-mentioned document, a tumor growth inhibitory action test of the compounds of the present invention was performed, the tumor tissue weight inhibition rate was calculated, and the anticancer effect of each of the compounds of the present invention was evaluated using the obtained rate as an index.
A 1% aqueous methyl cellulose solution was added to each test compound to suspend it with a sonicator, whereby a 10 mg/mL test compound suspension was prepared.
Physiological saline was added to B16 cells, whereby a 3.3×10^7 cells/mL B16 cell suspension was prepared.
• 1) The back of each mouse (female, 6 weeks of age, C57BL/6N mouse) was depilated using a depilatory under Nembutal anesthesia. • 2) Several days after the depilation, the B16 cell suspension (300 μL) was injected intradermally into the back of the mouse under Nembutal anesthesia. • 3) From the B16 cell injection day (i.e. on day 0) to day 10, the test compound suspension (100 mg/kg/day) was orally administered once a day consecutively. • 4) Ten days after the injection of the cells, the mouse was euthanized with CO2 gas. • 5) A tumor tissue was enucleated from the mouse, and the weight of the tumor tissue was measured with an electronic balance. • 6) A test was performed in the same manner as in 1) to 5) except that the 1% aqueous methyl cellulose solution was used instead of the test compound suspension, and the result was used as a control. (Calculation of Tumor Tissue Weight Inhibition Rate)
A tumor tissue weight inhibition rate (the average of 9 mice per group), which was used as an index of anticancer effect, was calculated according to the following calculation equation. Tumor tissue weight inhibition rate (%)=100−(Mx/Mo)×100 (Calculation Equation) Mo: Tumor tissue weight of control group Mx: Tumor tissue weight of test compound solution administration group (Test Results and Discussion)

[2] = tested on: adjuvant arthritis models in rats; assay: Paw edema inhibitory action test using adjuvant arthritis models in rats; format: in vivo; conditions: 504 h; Lewis rat, adjuvant-untreated (secondary inflammation) paw, day 21; 10 mg/kg/day oral once a day, day 0 to day 20; average of 8 rats per group; read-out: Paw edema inhibition rate (%)
Method: A paw edema inhibitory action test of the compounds of the present invention was performed using an adjuvant arthritis model in rats, which is one of the widely-used methods of evaluating in vivo antiarthritis effects of drugs.
As one of the widely-used methods of evaluating antiarthritic effects of drugs, a paw edema inhibitory action test using adjuvant arthritis models in rats is known. Accordingly, a paw edema inhibitory action test of the compounds of the present invention was performed, the paw edema inhibition rate was calculated, and the antiarthritic effect of each of the compounds of the present invention was evaluated using the obtained rate as an index.
A 1% aqueous methyl cellulose solution was added to each test compound to suspend it, whereby a 2 mg/mL test compound suspension was prepared.
Liquid paraffin was added to Mycobacterium butyricum to suspend it, whereby 6 mg/mL adjuvant was prepared.
• 1) The adjuvant (0.1 mL) was injected subcutaneously into a left hind paw sole of each rat (male, 9 weeks of age, Lewis rat) to induce arthritis. • 2) From the adjuvant injection day (i.e. on day 0) to day 20, the test compound suspension (10 mg/kg/day) was orally administered once a day consecutively. • 3) On the adjuvant injection day, day 1, day 4, day 7, day 11, day 14, day 18 and day 21, each paw volume of both hind paws was measured with a plethysmometer. • 4) A test was performed in the same manner as in 1) to 3) except that the 1% aqueous methyl cellulose solution was used instead of the test compound suspension, and the result was used as a control. (Method of Evaluation)
Each paw edema inhibition rate of paw edema in an adjuvant-untreated paw (secondary inflammation paw) in each test compound administration group to paw edema in a secondary inflammation paw in a control group was calculated, and the antiarthritic effect of each of the compounds of the present invention was evaluated using the obtained rate as an index.
The paw edema rate was calculated according to the following calculation equation 1, and then the paw edema inhibition rate (the average of 8 rats per group), which was used as an index of the antiarthritic effect, was calculated according to the calculation equation 2. Paw edema rate (%)=(Paw volume after adjuvant treatment/paw volume before adjuvant treatment)×100 (Calculation Equation 1) Paw edema inhibition rate (%)=100−{(Sx−100)/(So−100)}×100 (Calculation Equation 2) So: Paw edema rate of control group Sx: Paw edema rate of test compound suspension administration group (Test Results and Discussion)

[3] = tested on: choroidal neovascularization models in rats; assay: Neovascularization incidence test using laser-induced choroidal neovascularization models in rats; format: in vivo; conditions: 168 h; Brown Norway rat, krypton laser photocoagulation; 30 mg/kg/day oral once a day for 7 days; fluorescein fundus photography on day 7; average of 3 to 4 rats and 6 to 8 eyes; read-out: Ratio of neovascularization incidence rate (% of Control)
Method: A neovascularization incidence test of the compounds of the present invention was performed using a choroidal neovascularization model in rats, which is one of the widely-used methods of evaluating in vivo choroidal neovascularization inhibitory effects of drugs.
As one of the widely-used methods of evaluating choroidal neovascularization inhibitory effects of drugs, a neovascularization incidence test using choroidal neovascularization models in rats was reported in Graefe's Arch. Cli. Exp. Ophthalmol., 235, 313-319 (1997). According to the method described in the above-mentioned document, a neovascularization incidence test of the compounds of the present invention was performed, the ratio of neovascularization incidence rate of each of the compounds of the present invention administration groups to a neovascularization incidence rate of vehicle administration group (control group) was calculated, and the choroidal neovascularization inhibitory effect of each of the compounds of the present invention was evaluated using the obtained ratio as an index.
A 1% aqueous methyl cellulose solution was added to each test compound to suspend it, whereby a 6 mg/10 mL test compound suspension was prepared.
• 1) A 7:1 mixed solution (1 mL/kg) of a 5% ketamine hydrochloride injection and a 2% xylazine hydrochloride injection was administered intramuscularly to rats (Brown Norway male rat, 8 weeks of age, weight: 200 to 250 g) to anesthetize them systemically. • 2) A tropicamide-phenylephrine hydrochloride ophthalmic solution (trade name: Mydrin-P) was instilled into eyes to cause mydriasis, and then photocoagulation was performed in a Bruch's membrane of each rat using a krypton laser photocoagulation apparatus.
The laser photocoagulation was performed at 8 spots per eye sparsely avoiding thick retinal vessels in a posterior section of ocular fundus and focusing on the deep layer of the retina. Photocoagulation conditions were adjusted to 100 μm of spot size, 100 mW of intensity and 0.1 sec. dulation. • 3) After the photocoagulation, the ocular fundus was photographed to confirm photocoagulation (laser irradiation) sites. (Method of Test and Method of Measurement) • 1) From the laser photocoagulation day (i.e. on day 0) to day 6, the test compound suspension (30 mg/kg/day) was administered orally once a day for 7 consecutive days. • 2) As the vehicle administration group (control group), a test was performed in the same manner as in 1) except that the 1% aqueous methyl cellulose solution was used instead of the test compound suspension, and the result was used as a control. (Method of Evaluation) • 1) On day 7 after the photocoagulation, 0.1 mL of a 10% aqueous fluorescein solution was injected into a tail vein of the rat, and fluorescein fundus photography was performed. • 2) Next, in the fluorescein fundus photography, a spot where fluorescence leak was not observed was judged as negative, and a spot where fluorescence leak was observed was judged as positive. Photocoagulation sites where a little fluorescence leak was observed were judged as positive when two such sites are present. • 3) The neovascularization incidence rate was calculated according to the calculation equation 1. The ratio of the neovascularization incidence rate of the test compound administration group to that of the vehicle administration group was calculated according to the calculation equation 2 using the neovascularization incidence rate of the respective administration groups. […]

SMILES | inhibition at 20 µg/mL (stock) [1] | inhibition in vivo at 100 mg/kg/day (B16 cells) | inhibition in vivo at 10 mg/kg/day [2] | response vs control in vivo at 30 mg/kg/day [3]
CNc1cc(CSc2ncccc2C(=O)Nc2cc(C)cc(C)c2)ccn1 [Compound 3-6, N-(3,5-Dimethylphenyl)-2-(2-methylaminopyridin-4-ylmethylthio)pyridine-3-carboxamide monohydrochloride] | 100% | 71% | 33% | –
CC(=O)N1CCN(c2cc(CSc3ncccc3C(=O)Nc3cc(C)cc(C)c3)ccn2)CC1 [Compound 1-6, 2-[2-(4-Acetylpiperazin-1-yl)pyridin-4-ylmethylthio]-N-(3,5-dimethylphenyl)pyridine-3-carboxamide] | 100% | 42% | – | 38%
CC(=O)Nc1cc(CSc2ncccc2C(=O)Nc2cccc(C)c2)ccn1 [Compound 4-20, 2-(2-Acetylaminopyridin-4-ylmethylthio)-N-(3-methylphenyl)pyridine-3-carboxamide] | – | 84% | – | 22%
